According to patent publication US20240384268A1, “Oligonucleotides” (Hudson Institute of Medical Research, priority 2021, published 2024):
In the oligonucleotide strings, read from the 5' end, every base follows the letter of its sugar. An asterisk marks phosphorothioate; unmarked linkages are phosphodiester. Other units and linkages are bracketed, terminal groups are in braces. A string of capitals states the bases alone. m = 2'-O-methyl

Biological target: T1, human TLR9 (Homo sapiens, UniProt Q9NR96)
T1 construct: HA; host or cells: 293XL-hTLR9-HA (HEK293)
T1 sequence (Q9NR96 26-1032): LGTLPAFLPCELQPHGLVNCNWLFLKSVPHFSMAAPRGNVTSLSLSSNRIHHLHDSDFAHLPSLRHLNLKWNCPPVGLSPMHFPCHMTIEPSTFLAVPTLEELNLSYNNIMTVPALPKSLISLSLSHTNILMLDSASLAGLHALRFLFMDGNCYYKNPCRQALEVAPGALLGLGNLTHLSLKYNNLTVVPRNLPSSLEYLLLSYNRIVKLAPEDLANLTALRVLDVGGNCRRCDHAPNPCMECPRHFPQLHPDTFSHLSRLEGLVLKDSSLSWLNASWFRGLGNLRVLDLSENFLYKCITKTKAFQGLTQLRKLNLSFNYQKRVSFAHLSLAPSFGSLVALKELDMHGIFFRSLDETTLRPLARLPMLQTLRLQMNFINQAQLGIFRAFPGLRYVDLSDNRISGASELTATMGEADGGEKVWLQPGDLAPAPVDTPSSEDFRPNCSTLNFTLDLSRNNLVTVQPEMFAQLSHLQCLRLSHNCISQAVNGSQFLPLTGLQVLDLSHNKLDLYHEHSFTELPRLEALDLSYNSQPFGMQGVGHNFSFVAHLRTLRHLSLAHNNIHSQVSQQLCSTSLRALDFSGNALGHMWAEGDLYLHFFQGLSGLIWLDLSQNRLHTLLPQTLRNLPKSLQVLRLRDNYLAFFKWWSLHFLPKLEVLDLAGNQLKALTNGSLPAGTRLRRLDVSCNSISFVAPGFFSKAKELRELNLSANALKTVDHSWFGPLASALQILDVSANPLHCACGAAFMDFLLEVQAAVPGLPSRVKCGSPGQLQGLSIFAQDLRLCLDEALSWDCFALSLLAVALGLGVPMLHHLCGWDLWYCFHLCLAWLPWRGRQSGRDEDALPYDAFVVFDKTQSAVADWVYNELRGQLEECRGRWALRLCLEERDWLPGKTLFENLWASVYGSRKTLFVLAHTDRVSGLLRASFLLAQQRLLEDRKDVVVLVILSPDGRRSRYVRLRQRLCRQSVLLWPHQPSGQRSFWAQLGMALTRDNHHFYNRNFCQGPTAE
Test: HEK-TLR9 NF-κB-luciferase reporter, ODN2006 stimulation
Type: cell-based
Details: for TLR9 100 nM (averaged NF-κB-Luciferase level relative to ODN2006 condition): ASO 100 nM; for TLR9 100 nM (averaged NF-κB-Luciferase level relative to ODN2006 condition) / TLR9 500 nM (averaged NF-κB-Luciferase level relative to ODN2006 condition): relative to ODN2006 only, given as fraction; for TLR9 500 nM (averaged NF-κB-Luciferase level relative to ODN2006 condition): ASO 500 nM; for TLR9 2 uM: 3mer 2'OMe ASO at 2 uM, HEK-TLR9, value relative to Ligand only = 1.000, NT = 0.000

| Substance | TLR9 100 nM (averaged NF-κB-Luciferase level relative to ODN2006 condition) | TLR9 500 nM (averaged NF-κB-Luciferase level relative to ODN2006 condition) | TLR9 2 uM |
| --- | --- | --- | --- |
| GTATCGAAAGAGTCTG (antisense; LNA-modified, pattern not given here) [EGFR-3908 LNA KL] | 1.429 | 0.647 |  |
| mCmUmU (antisense mC*mU*mU) [660-3] |  |  | 1.108 |
| CAU (mC*mA*mU) |  |  | 0.921 |
| UUA (mU*mU*mA) |  |  | 0.912 |
| UAA (mU*mA*mA) |  |  | 1.176 |
| TGGCCTCCCATCTCCT (antisense; LNA-modified, pattern not given here) [HPRT LNA-329 V1] | 0.743 | 0.277 |  |
| mGmUmC (mG*mU*mC) [GUC, 3-mer 2′OMe PS oligo] |  |  | 0.856 |
| mUmGmG (mU*mG*mG) [UGG, 3-mer 2′OMe PS oligo] |  |  | 1.137 |
| UAG (mU*mA*mG) |  |  | 0.977 |
| AGU (antisense mA*mG*mU) |  |  | 0.840 |
| dC*dG*dA (CGA; listed as DNA, chemistry not fully specified) |  |  | 1.061 |
| UGC (mU*mG*mC) |  |  | 1.198 |
| dA*dA*dG (DNA AAG; listed as DNA, chemistry not fully specified) |  |  | 0.870 |
| dC*dC*dG (CCG; listed as DNA, chemistry not fully specified) |  |  | 0.936 |
| GTTCAGTCCTGTCCAT (antisense; LNA-modified, pattern not given here) [HPRT LNA-292 V1] | 1.081 | 0.382 |  |
| CUG (mC*mU*mG) |  |  | 0.948 |

| Substance | TLR9 100 nM (averaged NF-κB-Luciferase level relative to ODN2006 condition) | TLR9 500 nM (averaged NF-κB-Luciferase level relative to ODN2006 condition) | TLR9 2 uM |
| --- | --- | --- | --- |
| TGATGGCCTCCCATCT (antisense; LNA-modified, pattern not given here) [HPRT LNA-332 V1] | 0.770 | 0.153 |  |
| CCAAGATCAGCAGTCT (antisense; LNA-modified, pattern not given here) [CTNN2B-2341 LNA KL] | 1.424 | 0.669 |  |
| TTCGTGGGGTCCTTTT (antisense; LNA-modified, pattern not given here) [HPRT LNA-661 V1] | 0.963 | 0.523 |  |
| mGmUmG (mG*mU*mG) [GUG, 3-mer 2′OMe PS oligo] |  |  | 1.374 |
| AUA (antisense mA*mU*mA) |  |  | 0.944 |
| TGTGATGGCCTCCCAT (antisense; LNA-modified, pattern not given here) [HPRT LNA-334 V1] | 0.818 | 0.431 |  |
| dA*dC*dA (DNA ACA; listed as RNA, chemistry not fully specified) |  |  | 1.042 |
| dC*dA*dC (CAC; listed as RNA, chemistry not fully specified) |  |  | 0.830 |
| mUmCmA (mU*mC*mA) [UCA, 3-mer 2′OMe PS oligo] |  |  | 0.872 |
| dA*dG*dC (DNA AGC; listed as DNA, chemistry not fully specified) |  |  | 0.749 |
| CCU (mC*mC*mU) |  |  | 1.180 |
| GCCATGTTTCTTCTTG (antisense; LNA-modified, pattern not given here) [MB21D1-1248 LNA KL] | 0.163 | 0.070 |  |
| UUG (listed as RNA, chemistry not fully specified) |  |  | 0.816 |
| GGU (mG*mG*mU) |  |  | 1.177 |
| AAU (antisense mA*mA*mU) |  |  | 0.884 |
